From patent publication US4968713A, “Certain imidazole compounds as transglutaminase inhibitors” (Merck & Co., Inc., priority 1989, dated 1990)
Counter-ions that a name gives are not always drawn.

Biological target: T1, Factor XIIIa (Homo sapiens, UniProt P00488)
T1 construct: from tissue; host or cells: human plasma
T1 sequence (P00488 39-732 limits assumed): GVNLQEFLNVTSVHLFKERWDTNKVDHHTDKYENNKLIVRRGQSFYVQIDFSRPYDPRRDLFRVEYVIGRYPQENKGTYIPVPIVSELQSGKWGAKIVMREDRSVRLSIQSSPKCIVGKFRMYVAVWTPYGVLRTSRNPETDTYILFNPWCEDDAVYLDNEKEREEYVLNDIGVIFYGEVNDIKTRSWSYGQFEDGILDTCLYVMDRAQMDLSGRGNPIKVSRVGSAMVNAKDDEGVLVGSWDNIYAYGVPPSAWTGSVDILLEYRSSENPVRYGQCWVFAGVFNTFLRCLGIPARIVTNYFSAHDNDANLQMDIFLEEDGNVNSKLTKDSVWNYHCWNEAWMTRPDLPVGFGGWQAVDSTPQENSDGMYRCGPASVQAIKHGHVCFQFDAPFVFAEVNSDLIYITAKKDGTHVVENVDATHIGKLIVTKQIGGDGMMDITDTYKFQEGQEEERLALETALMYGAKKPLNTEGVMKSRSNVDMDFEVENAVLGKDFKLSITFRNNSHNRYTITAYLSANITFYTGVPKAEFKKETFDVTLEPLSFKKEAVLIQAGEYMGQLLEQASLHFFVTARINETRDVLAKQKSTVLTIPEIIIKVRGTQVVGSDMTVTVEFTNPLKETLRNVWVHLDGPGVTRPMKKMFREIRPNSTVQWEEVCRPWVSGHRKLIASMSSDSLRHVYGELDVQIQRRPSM
Assay: Factor XIIIa inhibitor assay (incorporation of 14C-putrescine into casein)
Format: biochemical
Conditions: for inhibition at 0.1 µM: @ 100 nM
Description: The Factor XIIIa inhibitor assay is based on the incorporation of ^14 C-putrescine into casein catalyzed by Factor XIIIa. The assay is carried out employing the procedure described in Methods in Enzymology, Vol. 45, Ch 15., pages 177-191 (1976) and using Factor XIII (F XIII) isolated from human plasma. The procedure is summarized briefly and schematically illustrated as follows: [drawing 9] Factor XIII assay mixtures are prepared by adding stepwise, appropriately prepared solutions of thrombin and dithiothreitol (DTT) to a mixture comprising Factor XIII at 140 μg/mL in glycerol/water and tris(hydroxymethyl)aminomethane hydrochloride (Tris.HCl). To a portion of the mixture is added calcium chloride as source of calcium ions required for enzyme activity and to the remaining mixture is added, instead of calcium ions, ethylenediaminetetraacetic acid (EDTA) which serves as a blank for background. A substrate mixture is prepared from ^14 C-putrescine and N,N-dimethylcasein. The assay tubes and control tubes are charged with the substrate mixture and incubated at 37° C. for 20 minutes. Samples are withdrawn from each tube, spotted onto a filter disk which is then immersed in ice cold trichloroacetic acid solution to precipitate the casein on the filter. The filter is then washed to remove unincorporated or free ^14 C-putrescine and after drying is counted for ^14 C-putrescine incorporated to casein from which percent activity and/or inhibition can be calculated.

[1] = read-out: Percent inhibition (Molar concn)

Q: With `CCC(=O)CSc1n(C)c(C)c(C)[n+]1C` [CH3, CH3, CH3, CH3, CH3, CF3 SO3^-] as the molecule, how does the inhibition at 0.1 µM [1] read?
A: Its inhibition at 0.1 µM is 93%.

Q: Which inhibition at 0.1 µM [1] does the source give for `CCCc1c(CCC)[n+](C)c(SCC(C)=O)n1C` [H, CH3, C3 H7, C3 H7, CH3, CF3 SO3^-, 1,3-Dimethyl-4,5-di(n-propyl)-2-[(2-oxopropyl)thio]imidazolium trifluoromethylsulfonate] here?
A: The inhibition at 0.1 µM was 86%.

Q: With `CCCc1nc(SCC(C)=O)n(C)c1C` [H, CH3, CH3, C3 H7, --, HCl] as the molecule, how does the inhibition at 4 µM (@ 4 μM, read-out: Percent inhibition (Molar concn)) read?
A: The inhibition at 4 µM was 46%.

Q: Which inhibition at 3.7 µM (@ 3.7 μM, read-out: Percent inhibition (Molar concn)) does the source give for `CC(=O)CSc1nc(C)c(C)n1C` [H, CH3, CH3, CH3, --, HCl, 1,4,5-Trimethyl-2[(2-oxopropyl)thio]imidazole] here?
A: Its inhibition at 3.7 µM is 76%.

Q: For `CC(=O)CSc1n(C)c(C)c(C)[n+]1C` [H, CH3, CH3, CH3, CH3, CF3 SO3^-, 1,3,4,5-tetramethyl-2[(2-oxopropyl)thio]imidazolium trifluoromethylsulfonate], which inhibition at 0.08 µM (@ 80 nM, read-out: Percent inhibition (Molar concn)) is on record?
A: The inhibition at 0.08 µM was 95%.

Q: Which “Percent inhibition (Molar concn)” value (@ 80 nM) does the source give for `CC(=O)CSc1n(C)c(C)c(C)[n+]1C.[Cl-]` [H, CH3, CH3, CH3, CH3, Cl^-, 1,3,4,5-Tetramethyl-2[(2-oxopropyl)thio]imidazolium chloride] here?
A: The value was 95%.

Q: How did the inhibition at 2 µM (@ 2 μM, read-out: Percent inhibition (Molar concn)) turn out when `CC(=O)CSc1ncc(C)n1C` [H, CH3, CH3, H, --, HCl, 1,5-Dimethyl-2[(2-oxopropyl)thio]imidazole] was run?
A: Its inhibition at 2 µM is 47%.

Q: `CC(=O)CSc1n(C)c(C)c[n+]1C` [H, CH3, CH3, H, CH3, CF3 SO3^-, 1,3,5-Trimethyl-2[(2-oxopropyl)thio]imidazolium trifluoromethylsulfonate] was tested. Which inhibition at 0.1 µM [1] did it give?
A: The inhibition at 0.1 µM was 90%.

Q: `CC(=O)CSc1nccn1C` [H, CH3, H, H, --, --] was tested. Which inhibition at 0.15 µM (@ 0.15 μM, read-out: Percent inhibition (Molar concn)) did it give?
A: Its inhibition at 0.15 µM is 40%.

Q: How did the inhibition at 0.313 µM (@ 313 nM, read-out: Percent inhibition (Molar concn)) turn out when `CC(=O)CSc1n(C)cc[n+]1C` [H, CH3, H, H, CH3, Cl^-] was run?
A: Its inhibition at 0.313 µM is 67%.

Q: Which inhibition at 0.11 µM (@ 110 nM, read-out: Percent inhibition (Molar concn)) does the source give for `CC(=O)CSc1n(C)cc[n+]1C` [H, CH3, H, H, CH3, I^-] here?
A: The inhibition at 0.11 µM was 44%.

Q: For `CC(=O)CSc1n(C)c(C(C)C)c(C(C)C)[n+]1C` [H, CH3, iPr, iPr, CH3, CF3 SO3^-], which inhibition at 1 µM (@ 1.0 μM, read-out: Percent inhibition (Molar concn)) is on record?
A: The inhibition at 1 µM was 44%.
